In ChEMBL document CHEMBL2424554, “Synthesis of new indazole derivatives as potential antioxidant agents” (Med Chem Res, 2013):

Assays:
Format in all cases: functional
[1] = Antioxidant activity assessed as ascorbic acid equivalent antioxidant capacity per mg sample after 90 mins by phosphomolybdenum method
[2] = Antioxidant activity assessed as DPPH scavenging activity after 20 mins by spectrophotometry; design: concentration or dose not given beside the values
[3] = Antioxidant activity assessed as effective concentration for potassium ferric cyanide ion reducing power equivalent of 0.5 absorbance ellagic acid at 100 to 1000 ug/ml after 20 mins by FRAP assay

In the case of `O=c1c2c([nH]n1-c1ccc([N+](=O)[O-])cc1)C=C(c1ccc(F)cc1)CC2c1ccc(Cl)cc1` (stereo not drawn), the Activity [1] is reported as 6.22 µM, the Activity [2] is reported as 84.4% and the Activity [3] is reported as 0.95 mg/mL.
`O=c1c2c([nH]n1-c1ccc([N+](=O)[O-])cc1[N+](=O)[O-])C=C(c1ccc(F)cc1)CC2c1ccc(Br)cc1` (stereo not drawn) showed an Activity [1] of 4.69 µM, an Activity [2] of 2.34% and an Activity [3] of 0.76 mg/mL.
With `O=c1c2c([nH]n1-c1ccccc1)C=C(c1ccc(F)cc1)CC2c1ccc(Br)cc1` (stereo not drawn) the Activity [1] was 1.97 µM, the Activity [2] was 96.8% and the Activity [3] was 0.802 mg/mL.
Compound `O=c1[nH][nH]c2c1C(c1ccccc1)CC(c1ccc(F)cc1)=C2` (stereo not drawn) has an Activity [1] of 4.75 µM, an Activity [2] of 19.8% and an Activity [3] of 0.63 mg/mL.
Compound `O=c1c2c([nH]n1-c1ccc([N+](=O)[O-])cc1[N+](=O)[O-])C=C(c1ccc(F)cc1)CC2c1ccccc1` (stereo not drawn) has an Activity [1] of 16.2 µM, an Activity [2] of 4.21% and an Activity [3] of 3.26 mg/mL.
For `N[C@@H](CCC(=O)N[C@@H](CS)C(=O)NCC(=O)O)C(=O)O`, the Activity [2] was 92.1%.
`O=c1c2c([nH]n1-c1ccccc1)C=C(c1ccc(F)cc1)CC2c1ccc(Cl)cc1` (stereo not drawn) gave an Activity [1] of 2.59 µM, an Activity [2] of 94% and an Activity [3] of 1.49 mg/mL.
For `O=c1oc2c(O)c(O)cc3c(=O)oc4c(O)c(O)cc1c4c23`, the Activity [3] was 0.105 mg/mL.
Work on `O=c1[nH][nH]c2c1C(c1ccc(Br)cc1)CC(c1ccc(F)cc1)=C2` (stereo not drawn) yielded an Activity [1] of 1.17 µM, an Activity [2] of 16.2% and an Activity [3] of 1.14 mg/mL.
`O=c1c2c([nH]n1-c1ccccc1)C=C(c1ccc(F)cc1)CC2c1ccccc1` (stereo not drawn) showed an Activity [1] of 3.95 µM, an Activity [2] of 90.2% and an Activity [3] of 1.95 mg/mL.
For `O=c1c2c([nH]n1-c1ccc([N+](=O)[O-])cc1)C=C(c1ccc(F)cc1)CC2c1ccccc1` (stereo not drawn), the Activity [1] was 0.69 µM, the Activity [2] was 89.6% and the Activity [3] was 0.47 mg/mL.
With `O=c1[nH][nH]c2c1C(c1ccc(Cl)cc1)CC(c1ccc(F)cc1)=C2` (stereo not drawn) the Activity [1] was 8.4 µM, the Activity [2] was 17.9% and the Activity [3] was 1.2 mg/mL.
`O=c1c2c([nH]n1-c1ccc([N+](=O)[O-])cc1)C=C(c1ccc(F)cc1)CC2c1ccc(Br)cc1` (stereo not drawn) gave an Activity [1] of 0.58 µM, an Activity [2] of 85.3% and an Activity [3] of 0.64 mg/mL.
For `O=c1c2c([nH]n1-c1ccc([N+](=O)[O-])cc1[N+](=O)[O-])C=C(c1ccc(F)cc1)CC2c1ccc(Cl)cc1` (stereo not drawn), the Activity [1] was 7.83 µM, the Activity [2] was 19.6% and the Activity [3] was 0.75 mg/mL.
